# According to PMC9898036, “VIP152 is a selective CDK9 inhibitor with pre-clinical in vitro and in vivo efficacy in chronic lymphocytic leukemia” (Leukemia, 2022):
# How the values were obtained:
# [1] = target: RET(V804M) (Homo sapiens, UniProt P07949, V804M); test: KINOMEscan: RET(V804M); type: binding; details: 100 nM, read-out: Percent Control
# [2] = target: Serotonin (5-Hydroxytryptamine) 5-HT2B) (Homo sapiens, UniProt P41595); test: Eurofins Diversity Panel; type: binding; details: hum, Conc. 10 μM
# [3] = target: CSNK2A2 (Homo sapiens, UniProt P19784); test: KINOMEscan: CSNK2A2; type: binding; details: 1000 nM, read-out: Percent Control
# [4] = target: FES (Homo sapiens, UniProt P07332); test: KINOMEscan: FES; type: binding; details: 1000 nM, read-out: Percent Control
# [5] = target: CAMK2A (Homo sapiens, UniProt Q9UQM7); test: KINOMEscan: CAMK2A; type: binding; details: 1000 nM, read-out: Percent Control
# [6] = target: SNRK (Homo sapiens, UniProt Q9NRH2); test: KINOMEscan: SNRK; type: binding; details: 100 nM, read-out: Percent Control
# [7] = target: Dopamine D3 (Homo sapiens, UniProt P35462); test: Eurofins Diversity Panel; type: binding; details: hum, Conc. 10 μM
# [8] = target: BMPR2 (Homo sapiens, UniProt Q13873); test: KINOMEscan: BMPR2; type: binding; details: 1000 nM, read-out: Percent Control
# [9] = system: primary CLL samples with human stromal cell line (HS-5) co-culture; test: Annexin V/PI flow cytometry, four-hour treatment with washout, HS-5 stromal co-culture; type: cell-based; details: relapse/refractory samples; four-hour exposure, after 24 h
# [10] = system: FLT3(ITD,F691L); test: KINOMEscan: FLT3(ITD,F691L); type: binding, human; details: 1000 nM
# [11] = target: DAPK1 (Homo sapiens, UniProt P53355); test: KINOMEscan: DAPK1; type: binding; details: 1000 nM, read-out: Percent Control
# [12] = target: Leukotriene, Cysteinyl CysLT1 (Homo sapiens, UniProt Q9Y271); test: Eurofins Diversity Panel; type: binding; details: hum, Conc. 10 μM
# [13] = target: TIE2 (Homo sapiens, UniProt Q02763); test: KINOMEscan: TIE2; type: binding; details: 100 nM, read-out: Percent Control
# [14] = target: TEC (Homo sapiens, UniProt P42680); test: KINOMEscan: TEC; type: binding; details: 100 nM, read-out: Percent Control
# [15] = target: MEK5 (Homo sapiens, UniProt Q13163); test: KINOMEscan: MEK5; type: binding; details: 1000 nM, read-out: Percent Control
# [16] = target: GAK (Homo sapiens, UniProt O14976); test: KINOMEscan: GAK; type: binding; details: 1000 nM, read-out: Percent Control
# [17] = target: WEE1 (Homo sapiens, UniProt P30291); test: KINOMEscan: WEE1; type: binding; details: 100 nM, read-out: Percent Control
# [18] = target: Adenosine A1 (Homo sapiens, UniProt P30542); test: Eurofins Diversity Panel; type: binding; details: hum, Conc. 10 μM
# [19] = target: Tachykinin NK1 (Homo sapiens, UniProt P25103); test: Eurofins Diversity Panel; type: binding; details: hum, Conc. 10 μM
# [20] = system: CLL patient samples; test: Western blot of CLL patient samples; type: cell-based, human; details: 1 µM, 8 h
# Experimental: Lysate concentration was quantified using Pierce™ BCA Protein Assay Kit (ThermoFiser Scientific – cat. 23225) and proteins were analyzed via immunoblot. A full list of antibodies may be found in the supplementary methods section. All images are representative of three independent experiments.
# P-TEFb’s role in regulating transcription through POLII CTD phosphorylation is a canonical function of this complex. To interrogate the transcriptional changes associated with VIP152 treatment, we treated B-cells, isolated from four patients with treatment-naïve CLL, with 1 µM VIP152 or DMSO for two hours followed by fluorescence-assisted cell sorting for 500 live (Sytox^−), CD45^+/CD5^+/CD19^+ cells (Fig. 3A). Our group has previously defined an analysis pipeline, named CLEAR, which identifies evenly distributed reads for differentially expressed gene (DEG) analysis. […] When we looked at the expression of these differentially abundant genes via an unsupervised clustered heatmap, we noted that there was high concordance between the patient samples with clustering dependent on treatment group (Fig. 3C). The treatment did induce decreased transcript abundance of genes previously reported to be controlled by CDK9 activity, namely JUNB, BTG1, and MCL1 [45, 46]. Downregulation of the anti-apoptotic MCL1 (LFC: −1.231056 & p-value = 0.02) likely contributes to the susceptibility of primary CLL cells to apoptosis (Fig. 2F, G). […] It has been established that AU-rich element (ARE) mRNA molecules are under tight temporal regulation and control a variety of cellular processes. Moreover, the relationship between P-TEFb mediated transcription and ARE-bearing mRNA has previously been described. […] We appreciate from our limiting-cell RNA sequencing experiments that the loss of tristetrapolin (ZFP36) transcripts (LFC: −4.02; adjusted p-value: 7.97*10^−40) and the upregulation of ribosomal transcripts, likely correspond to a possible compensatory mechanism by which these cells attempt to improve translational output and maximize transcript maintenance in response to VIP152-induced transcriptional shutdown. […] We looked at transcripts which had been shown by photoactivatable ribonucleoside cross-linking and immunoprecipitation (PAR-CLIP) to interact with ZFP36 [50]. […]
# Fig. 3 VIP152 induces rapid transcriptomic changes. […] E–G 7 CLL patient samples were treated for 8 h with 1 µM VIP152 and then analyzed for protein expression by western blot (E, F) and ZFP36, ZFP36L1, and ZFP36L2 expression by qRT-PCR (G). H–L 5 CLL patient samples were treated for 8 h with 1 µM VIP152 and then supplemented with 500 nM Actinomycin-D. RNA was taken at varying timepoints and analyzed via qRT-PCR. M mRNA half-lives of analyzed transcripts in (H–L) as determined by nonlinear regression using a one-phase decay method.
# [21] = target: EPHA8 (Homo sapiens, UniProt P29322); test: KINOMEscan: EPHA8; type: binding; details: 1000 nM, read-out: Percent Control
# Sequence of EPHA8 (P29322 28-1005): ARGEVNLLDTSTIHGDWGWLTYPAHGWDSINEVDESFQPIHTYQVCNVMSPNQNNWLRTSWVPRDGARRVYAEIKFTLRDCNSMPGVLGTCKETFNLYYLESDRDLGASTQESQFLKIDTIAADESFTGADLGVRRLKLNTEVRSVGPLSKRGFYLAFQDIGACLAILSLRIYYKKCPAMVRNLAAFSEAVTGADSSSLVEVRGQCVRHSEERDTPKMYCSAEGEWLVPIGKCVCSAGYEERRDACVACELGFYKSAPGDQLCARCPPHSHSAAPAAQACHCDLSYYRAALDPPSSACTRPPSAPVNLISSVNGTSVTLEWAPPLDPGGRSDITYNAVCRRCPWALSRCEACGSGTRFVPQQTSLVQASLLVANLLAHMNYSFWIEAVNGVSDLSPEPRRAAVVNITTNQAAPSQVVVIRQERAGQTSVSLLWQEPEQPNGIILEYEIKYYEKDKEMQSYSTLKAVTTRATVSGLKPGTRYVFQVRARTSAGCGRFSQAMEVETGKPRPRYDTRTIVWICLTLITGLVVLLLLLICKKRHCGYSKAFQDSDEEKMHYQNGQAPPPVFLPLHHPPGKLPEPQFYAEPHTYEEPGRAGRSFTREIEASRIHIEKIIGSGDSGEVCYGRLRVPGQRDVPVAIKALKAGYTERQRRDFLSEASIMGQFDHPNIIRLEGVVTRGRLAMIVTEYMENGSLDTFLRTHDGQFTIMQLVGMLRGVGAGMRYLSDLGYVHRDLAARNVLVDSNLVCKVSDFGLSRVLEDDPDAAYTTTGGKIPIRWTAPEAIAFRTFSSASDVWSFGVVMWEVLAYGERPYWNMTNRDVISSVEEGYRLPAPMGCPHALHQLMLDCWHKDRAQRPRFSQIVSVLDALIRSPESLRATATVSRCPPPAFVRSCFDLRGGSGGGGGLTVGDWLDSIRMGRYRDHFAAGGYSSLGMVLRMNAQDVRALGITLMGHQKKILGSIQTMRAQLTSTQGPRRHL
# Sequence of SNRK (Q9NRH2 whole entry): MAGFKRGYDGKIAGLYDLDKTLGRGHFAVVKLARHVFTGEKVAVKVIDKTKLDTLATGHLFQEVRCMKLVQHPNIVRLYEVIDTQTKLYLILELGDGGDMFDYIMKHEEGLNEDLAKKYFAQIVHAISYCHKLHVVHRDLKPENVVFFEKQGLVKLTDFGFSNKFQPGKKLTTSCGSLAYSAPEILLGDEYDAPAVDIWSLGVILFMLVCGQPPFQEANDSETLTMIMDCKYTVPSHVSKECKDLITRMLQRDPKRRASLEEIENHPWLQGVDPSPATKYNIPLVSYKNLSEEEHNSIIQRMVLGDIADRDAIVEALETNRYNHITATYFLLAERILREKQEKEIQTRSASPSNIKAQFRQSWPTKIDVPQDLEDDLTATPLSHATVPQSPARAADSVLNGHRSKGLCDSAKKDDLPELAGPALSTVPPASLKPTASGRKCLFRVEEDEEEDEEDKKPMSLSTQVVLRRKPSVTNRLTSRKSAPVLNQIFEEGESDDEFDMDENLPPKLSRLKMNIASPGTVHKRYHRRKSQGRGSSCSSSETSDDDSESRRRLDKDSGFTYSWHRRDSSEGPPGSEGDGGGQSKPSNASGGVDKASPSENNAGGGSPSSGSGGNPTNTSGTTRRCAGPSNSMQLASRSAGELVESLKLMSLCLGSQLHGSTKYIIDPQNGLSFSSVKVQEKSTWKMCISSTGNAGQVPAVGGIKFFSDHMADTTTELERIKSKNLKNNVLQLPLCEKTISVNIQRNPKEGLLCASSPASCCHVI
# Sequence of Tachykinin NK1 (P25103 whole entry): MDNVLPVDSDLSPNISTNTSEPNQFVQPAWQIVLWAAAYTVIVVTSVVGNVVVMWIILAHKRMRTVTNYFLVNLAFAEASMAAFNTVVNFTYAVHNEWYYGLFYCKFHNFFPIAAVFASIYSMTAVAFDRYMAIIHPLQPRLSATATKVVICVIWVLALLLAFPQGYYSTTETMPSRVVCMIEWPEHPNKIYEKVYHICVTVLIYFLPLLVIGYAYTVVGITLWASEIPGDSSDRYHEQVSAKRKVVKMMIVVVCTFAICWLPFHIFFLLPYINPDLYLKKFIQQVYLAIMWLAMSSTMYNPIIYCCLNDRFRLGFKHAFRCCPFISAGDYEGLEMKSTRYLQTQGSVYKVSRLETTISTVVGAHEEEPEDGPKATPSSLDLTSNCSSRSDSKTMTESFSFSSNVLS
# Sequence of Leukotriene, Cysteinyl CysLT1 (Q9Y271 whole entry): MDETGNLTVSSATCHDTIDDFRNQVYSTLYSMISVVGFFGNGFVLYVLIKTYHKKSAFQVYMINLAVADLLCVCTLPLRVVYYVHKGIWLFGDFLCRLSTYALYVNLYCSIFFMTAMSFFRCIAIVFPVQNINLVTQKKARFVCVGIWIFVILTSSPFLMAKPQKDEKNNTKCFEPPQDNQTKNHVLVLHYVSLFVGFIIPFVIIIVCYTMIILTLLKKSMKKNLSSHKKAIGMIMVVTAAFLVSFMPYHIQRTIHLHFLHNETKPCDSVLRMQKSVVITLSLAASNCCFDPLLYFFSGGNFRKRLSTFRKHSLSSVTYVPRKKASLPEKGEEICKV
# Sequence of RET(V804M) (P07949 29-1114 V804M): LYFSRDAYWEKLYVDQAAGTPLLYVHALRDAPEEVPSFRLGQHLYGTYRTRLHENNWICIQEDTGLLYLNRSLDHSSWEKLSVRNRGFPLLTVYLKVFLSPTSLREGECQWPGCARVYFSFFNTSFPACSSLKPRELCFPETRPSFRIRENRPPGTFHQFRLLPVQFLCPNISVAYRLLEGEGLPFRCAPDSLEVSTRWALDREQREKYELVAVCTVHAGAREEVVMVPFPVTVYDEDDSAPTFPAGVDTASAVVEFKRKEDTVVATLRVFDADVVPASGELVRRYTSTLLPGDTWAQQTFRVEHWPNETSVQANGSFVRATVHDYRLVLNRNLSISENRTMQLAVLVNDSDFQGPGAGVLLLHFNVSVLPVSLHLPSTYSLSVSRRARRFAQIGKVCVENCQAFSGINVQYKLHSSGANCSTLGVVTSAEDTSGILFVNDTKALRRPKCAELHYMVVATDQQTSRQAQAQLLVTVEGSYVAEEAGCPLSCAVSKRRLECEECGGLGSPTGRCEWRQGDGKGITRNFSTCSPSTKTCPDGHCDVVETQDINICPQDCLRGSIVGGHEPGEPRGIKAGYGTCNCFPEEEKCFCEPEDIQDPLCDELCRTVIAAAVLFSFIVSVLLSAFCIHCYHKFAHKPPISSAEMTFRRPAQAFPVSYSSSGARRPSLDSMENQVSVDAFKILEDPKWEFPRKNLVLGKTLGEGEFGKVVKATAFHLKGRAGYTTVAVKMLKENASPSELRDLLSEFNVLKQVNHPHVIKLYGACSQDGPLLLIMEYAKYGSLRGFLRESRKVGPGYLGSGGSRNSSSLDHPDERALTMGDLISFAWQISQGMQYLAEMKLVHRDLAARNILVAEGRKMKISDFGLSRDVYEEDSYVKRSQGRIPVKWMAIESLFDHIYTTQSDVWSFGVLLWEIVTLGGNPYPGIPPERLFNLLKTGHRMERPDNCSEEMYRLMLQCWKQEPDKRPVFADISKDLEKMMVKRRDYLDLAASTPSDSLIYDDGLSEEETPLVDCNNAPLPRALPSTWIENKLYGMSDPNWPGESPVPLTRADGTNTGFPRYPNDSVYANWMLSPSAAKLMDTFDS
# Sequence of Adenosine A1 (P30542 whole entry): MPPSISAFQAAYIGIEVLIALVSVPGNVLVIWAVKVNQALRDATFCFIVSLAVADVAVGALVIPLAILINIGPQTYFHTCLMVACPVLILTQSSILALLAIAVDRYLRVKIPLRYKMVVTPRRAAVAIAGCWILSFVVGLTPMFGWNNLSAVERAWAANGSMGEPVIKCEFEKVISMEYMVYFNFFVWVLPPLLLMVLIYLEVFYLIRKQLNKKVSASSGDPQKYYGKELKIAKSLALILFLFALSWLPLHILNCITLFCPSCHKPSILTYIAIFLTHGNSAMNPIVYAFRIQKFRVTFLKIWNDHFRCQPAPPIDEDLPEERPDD
# Sequence of BMPR2 (Q13873 27-1038): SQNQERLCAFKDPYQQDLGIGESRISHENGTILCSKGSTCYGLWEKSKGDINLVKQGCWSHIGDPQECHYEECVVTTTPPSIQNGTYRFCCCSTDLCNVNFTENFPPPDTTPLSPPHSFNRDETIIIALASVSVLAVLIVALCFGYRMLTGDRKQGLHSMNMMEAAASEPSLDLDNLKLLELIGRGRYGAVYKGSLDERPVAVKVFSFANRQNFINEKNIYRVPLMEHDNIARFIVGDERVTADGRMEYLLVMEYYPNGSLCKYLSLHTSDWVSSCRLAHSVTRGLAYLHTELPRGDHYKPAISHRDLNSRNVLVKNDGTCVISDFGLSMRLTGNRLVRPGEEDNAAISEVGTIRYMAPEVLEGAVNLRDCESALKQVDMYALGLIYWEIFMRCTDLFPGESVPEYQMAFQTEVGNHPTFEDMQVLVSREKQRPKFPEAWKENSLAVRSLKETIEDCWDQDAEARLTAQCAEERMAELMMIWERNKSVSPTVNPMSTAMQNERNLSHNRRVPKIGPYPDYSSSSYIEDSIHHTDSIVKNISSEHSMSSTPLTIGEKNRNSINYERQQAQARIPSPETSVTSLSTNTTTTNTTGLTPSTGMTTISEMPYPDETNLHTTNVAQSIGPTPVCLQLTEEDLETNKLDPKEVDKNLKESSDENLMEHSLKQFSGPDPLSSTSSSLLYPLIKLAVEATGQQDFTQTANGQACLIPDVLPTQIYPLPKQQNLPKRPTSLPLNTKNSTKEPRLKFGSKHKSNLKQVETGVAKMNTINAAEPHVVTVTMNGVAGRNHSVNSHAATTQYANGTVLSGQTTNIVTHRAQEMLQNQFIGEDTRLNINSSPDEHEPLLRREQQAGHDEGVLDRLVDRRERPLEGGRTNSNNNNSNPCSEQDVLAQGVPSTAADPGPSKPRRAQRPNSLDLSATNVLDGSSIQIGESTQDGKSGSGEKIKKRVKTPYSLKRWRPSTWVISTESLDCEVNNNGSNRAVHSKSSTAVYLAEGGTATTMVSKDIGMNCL
compound,measurement,setting,value
COc1cc(F)ccc1-c1cc(Nc2cc(CS(C)(=N)=O)ccn2)ncc1F (stereo not drawn) [VIP152],remaining binding at 0.1 µM,[1],100%
same,inhibition at 10 µM,[2],56%
same,remaining binding at 1 µM,[3],69%
same,remaining binding at 1 µM,[4],87%
same,remaining binding at 1 µM,[5],84%
same,remaining binding at 0.1 µM,[6],100%
same,inhibition at 10 µM,[7],7%
same,remaining binding at 1 µM,[8],93%
same,apoptosis and stromal protection,[9],induce significant apoptosis after 24 h and overcome stromal protection
same,Percent Control,[10],78%
same,remaining binding at 1 µM,[11],87%
same,inhibition at 10 µM,[12],-22%
same,remaining binding at 0.1 µM,[13],100%
same,remaining binding at 0.1 µM,[14],100%
same,remaining binding at 1 µM,[15],52%
same,remaining binding at 1 µM,[16],82%
same,remaining binding at 0.1 µM,[17],98%
same,inhibition at 10 µM,[18],4%
same,inhibition at 10 µM,[19],19%
same,BTG1 protein,[20],not
same,JUNB protein,[20],decrease
same,MCL1 protein,[20],decrease
same,expression of tristetrapolin (ZFP36),[20]; seven CLL patient samples,decreased expression
same,remaining binding at 1 µM,[21],100%
